Measurements taken from ChEMBL document CHEMBL3352536, “Antiparasitic compounds may potentially treat malaria and other parasitic diseases” (ACS Med Chem Lett, 2014).

Columns and labels:
Plasmodium yoelii = test: Antiplasmodial activity against Plasmodium yoelii infected in liver cells assessed as inhibition of proliferation; assay type: functional, organism-based
Plasmodium falciparum = test: Antiplasmodial activity against Plasmodium falciparum infected in human blood cells assessed as inhibition of proliferation; assay type: functional, organism-based

SMILES	EC50 (Plasmodium yoelii) [nM]	EC50 (Plasmodium falciparum) [nM]
CN(Cc1cn2c(-c3ccc(C(N)=O)cc3)cnc2cn1)c1ccc(Cl)cc1	11	9
Cc1ccc(N(C)C(=O)c2cn3c(-c4ccc(C(F)(F)F)cc4)cnc3cn2)nc1	1110	199
CN(Cc1cn2c(-c3ccc(C(N)=O)cc3)cnc2cn1)c1ccc(F)cc1	7	30
CN(C(=O)c1cn2c(-c3ccc(C(N)=O)cc3)cnc2cn1)c1ccc(F)cc1	56	74
